Values after ≈ are worked out from the molar mass of the structure shown.
System: E. coli E1
Assay: MIC veterinary bacteria (Table 2), serial dilution in agar
Format: cell-based
Details: Escherichia coli, diagnostic sensitivity test agar

Question: With C/C(=C\C(=O)OCCCS(=O)(=O)N(C)C)CC1OCC(CC2OC2C(C)C(C)O)C(O)C1O (centres unmarked) [Example 4, 3-N,N-Dimethylsulphamoylpropyl monate A] as the compound, how does the MIC read?
Answer: Its MIC is over 80 µg/mL.

System: Strep pneumoniae CN33
Assay: MIC human bacteria (Table 1), serial dilution in nutrient agar
Format: cell-based
Details: nutrient agar with 5% chocolated horse blood

Question: With C/C(=C\C(=O)OCCCS(=O)(=O)N(C)C)CC1OCC(CC2OC2C(C)C(C)O)C(O)C1O (centres unmarked) [Example 4, 3-N,N-Dimethylsulphamoylpropyl monate A] as the compound, how does the MIC read?
Answer: The MIC was 1 µg/mL (≈ 2.03 µM).

System: Corynebacterium xerosis 9755
Assay: as above
Format: cell-based
Details: nutrient agar with 5% chocolated horse blood

Question: For C/C(=C\C(=O)OCCCS(=O)(=O)N(C)C)CC1OCC(CC2OC2C(C)C(C)O)C(O)C1O (centres unmarked) [Example 4, 3-N,N-Dimethylsulphamoylpropyl monate A], which MIC is on record?
Answer: The MIC was “No Growth”.

System: Bord bronchiseptica B08
Assay: MIC veterinary bacteria (Table 2), serial dilution in agar
Format: cell-based
Details: diagnostic sensitivity test agar

Question: For C/C(=C\C(=O)OCCCS(=O)(=O)N(C)C)CC1OCC(CC2OC2C(C)C(C)O)C(O)C1O (centres unmarked) [Example 4, 3-N,N-Dimethylsulphamoylpropyl monate A], which MIC is on record?
Answer: Its MIC is 80 µg/mL (≈ 162 µM).

System: not listed separately
Assay: Serum binding by ultrafiltration of porcine serum
Format: in vitro ADME
Details: pig, 8 mcg/ml, microbiological assay, read-out: % bound to pig serum (converted)
Protocol: Serum binding was assessed by ultrafiltration of porcine serum containing compounds at 8 mcg/ml, and through an Amicon CF50A ultrafiltration cone. Separation of ultrafiltrate was achieved by centrifugation. Unbound concentrations of compound were measured in the ultrafiltrate by microbiological assay (B. subtilis ATCC 6633) against standards prepared in saline.

Question: Which fraction unbound does the source give for C/C(=C\C(=O)OCCCS(=O)(=O)N(C)C)CC1OCC(CC2OC2C(C)C(C)O)C(O)C1O (centres unmarked) [Example 4, 3-N,N-Dimethylsulphamoylpropyl monate A] here?
Answer: The fraction unbound was 0.053.

System: Neisseria catarrhalis 1502
Assay: MIC human bacteria (Table 1), serial dilution in nutrient agar
Format: cell-based
Details: nutrient agar with 5% chocolated horse blood

Question: For C/C(=C\C(=O)OCCCS(=O)(=O)N(C)C)CC1OCC(CC2OC2C(C)C(C)O)C(O)C1O (centres unmarked) [Example 4, 3-N,N-Dimethylsulphamoylpropyl monate A], which MIC is on record?
Answer: The MIC was 1 µg/mL (≈ 2.03 µM).

System: K. aerogenes A
Assay: as above
Format: cell-based
Details: Klebsiella aerogenes, nutrient agar with 5% chocolated horse blood

Question: For C/C(=C\C(=O)OCCCS(=O)(=O)N(C)C)CC1OCC(CC2OC2C(C)C(C)O)C(O)C1O (centres unmarked) [Example 4, 3-N,N-Dimethylsulphamoylpropyl monate A], which MIC is on record?
Answer: Its MIC is over 100 µg/mL.

System: M. suipneumoniae MS16
Assay: anti-mycoplasmal MIC, Friis broth solidified with agarose (Table 4)
Format: cell-based
Details: Mesomycoplasma hyopneumoniae, 144 h; M. suipneumoniae MS16; 6 days at 37° C.; read-out: MIC

Question: With C/C(=C\C(=O)OCCCS(=O)(=O)N(C)C)CC1OCC(CC2OC2C(C)C(C)O)C(O)C1O (centres unmarked) [Example 4, 3-N,N-Dimethylsulphamoylpropyl monate A] as the compound, how does the MIC read?
Answer: The MIC was 500 µg/mL (≈ 1010 µM).

System: Past multocida PA1
Assay: MIC veterinary bacteria (Table 2), serial dilution in agar
Format: cell-based
Details: diagnostic sensitivity test agar

Question: With C/C(=C\C(=O)OCCCS(=O)(=O)N(C)C)CC1OCC(CC2OC2C(C)C(C)O)C(O)C1O (centres unmarked) [Example 4, 3-N,N-Dimethylsulphamoylpropyl monate A] as the compound, how does the MIC read?
Answer: Its MIC is 0.625 µg/mL (≈ 1.27 µM).

System: P. mirabilis 889
Assay: MIC human bacteria (Table 1), serial dilution in nutrient agar
Format: cell-based
Details: Proteus mirabilis; P. mirabilis 889; nutrient agar with 5% chocolated horse blood; read-out: MIC

Question: Which MIC does the source give for C/C(=C\C(=O)OCCCS(=O)(=O)N(C)C)CC1OCC(CC2OC2C(C)C(C)O)C(O)C1O (centres unmarked) [Example 4, 3-N,N-Dimethylsulphamoylpropyl monate A] here?
Answer: Its MIC is over 100 µg/mL.

System: Strep agalactiae SPA1
Assay: MIC veterinary bacteria (Table 2), serial dilution in agar
Format: cell-based
Details: diagnostic sensitivity test agar

Question: Which MIC does the source give for C/C(=C\C(=O)OCCCS(=O)(=O)N(C)C)CC1OCC(CC2OC2C(C)C(C)O)C(O)C1O (centres unmarked) [Example 4, 3-N,N-Dimethylsulphamoylpropyl monate A] here?
Answer: Its MIC is 2.5 µg/mL (≈ 5.06 µM).

System: Corynebacterium pyogenes CY1
Assay: as above
Format: cell-based
Details: Trueperella pyogenes, diagnostic sensitivity test agar

Question: With C/C(=C\C(=O)OCCCS(=O)(=O)N(C)C)CC1OCC(CC2OC2C(C)C(C)O)C(O)C1O (centres unmarked) [Example 4, 3-N,N-Dimethylsulphamoylpropyl monate A] as the compound, how does the MIC read?
Answer: The MIC was over 80 µg/mL.

System: E. coli NCTC 10418
Assay: as above
Format: cell-based
Details: Escherichia coli, NCTC10418; E. coli NCTC 10418; diagnostic sensitivity test agar; read-out: MIC

Question: For C/C(=C\C(=O)OCCCS(=O)(=O)N(C)C)CC1OCC(CC2OC2C(C)C(C)O)C(O)C1O (centres unmarked) [Example 4, 3-N,N-Dimethylsulphamoylpropyl monate A], which MIC is on record?
Answer: The MIC was over 80 µg/mL.

System: Past multocida PA2
Assay: as above
Format: cell-based
Details: diagnostic sensitivity test agar

Question: With C/C(=C\C(=O)OCCCS(=O)(=O)N(C)C)CC1OCC(CC2OC2C(C)C(C)O)C(O)C1O (centres unmarked) [Example 4, 3-N,N-Dimethylsulphamoylpropyl monate A] as the compound, how does the MIC read?
Answer: Its MIC is 0.312 µg/mL (≈ 0.632 µM).

System: Strep pyogenes B 2788
Assay: MIC human bacteria (Table 1), serial dilution in nutrient agar
Format: cell-based
Details: nutrient agar with 5% chocolated horse blood

Question: For C/C(=C\C(=O)OCCCS(=O)(=O)N(C)C)CC1OCC(CC2OC2C(C)C(C)O)C(O)C1O (centres unmarked) [Example 4, 3-N,N-Dimethylsulphamoylpropyl monate A], which MIC is on record?
Answer: Its MIC is 2.5 µg/mL (≈ 5.06 µM).

System: Staph aureus 152 (pen. sens)
Assay: MIC veterinary bacteria (Table 2), serial dilution in agar
Format: cell-based
Details: Staphylococcus aureus, diagnostic sensitivity test agar

Question: For C/C(=C\C(=O)OCCCS(=O)(=O)N(C)C)CC1OCC(CC2OC2C(C)C(C)O)C(O)C1O (centres unmarked) [Example 4, 3-N,N-Dimethylsulphamoylpropyl monate A], which MIC is on record?
Answer: Its MIC is 2.5 µg/mL (≈ 5.06 µM).

System: Staph aureus Oxford
Assay: as above
Format: cell-based
Details: Staphylococcus aureus; Staph aureus Oxford; diagnostic sensitivity test agar; read-out: MIC

Question: For C/C(=C\C(=O)OCCCS(=O)(=O)N(C)C)CC1OCC(CC2OC2C(C)C(C)O)C(O)C1O (centres unmarked) [Example 4, 3-N,N-Dimethylsulphamoylpropyl monate A], which MIC is on record?
Answer: The MIC was 2.5 µg/mL (≈ 5.06 µM).

System: S. dublin S7
Assay: as above
Format: cell-based
Details: Salmonella enterica, diagnostic sensitivity test agar

Question: For C/C(=C\C(=O)OCCCS(=O)(=O)N(C)C)CC1OCC(CC2OC2C(C)C(C)O)C(O)C1O (centres unmarked) [Example 4, 3-N,N-Dimethylsulphamoylpropyl monate A], which MIC is on record?
Answer: Its MIC is over 80 µg/mL.

System: Strep pyogenes A 64/848
Assay: MIC human bacteria (Table 1), serial dilution in nutrient agar
Format: cell-based
Details: nutrient agar with 5% chocolated horse blood

Question: With C/C(=C\C(=O)OCCCS(=O)(=O)N(C)C)CC1OCC(CC2OC2C(C)C(C)O)C(O)C1O (centres unmarked) [Example 4, 3-N,N-Dimethylsulphamoylpropyl monate A] as the compound, how does the MIC read?
Answer: Its MIC is 2.5 µg/mL (≈ 5.06 µM).

System: Strep uberis SPU1
Assay: MIC veterinary bacteria (Table 2), serial dilution in agar
Format: cell-based
Details: diagnostic sensitivity test agar

Question: With C/C(=C\C(=O)OCCCS(=O)(=O)N(C)C)CC1OCC(CC2OC2C(C)C(C)O)C(O)C1O (centres unmarked) [Example 4, 3-N,N-Dimethylsulphamoylpropyl monate A] as the compound, how does the MIC read?
Answer: Its MIC is 2.5 µg/mL (≈ 5.06 µM).

Reference: US4312867A, “Antibacterial compounds, processes for their preparation and compositions containing them” (Beecham Group Limited, priority 1979, dated 1982)
